According to ChEMBL document CHEMBL1201862, “PubChem BioAssay data set” (2004):
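Cultured in 96-well plates, cells were exposed to test compound for 48 hours across five concentrations. At the GI50, growth is halved.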 Active and inactive are the calls of the source. No stated cut-off is given here; in the data, active = GI50 up to about 1.1 µM and inactive = higher.

Assays:
Test in all cases: NCI anticancer screen, dose series, 48 h
[1] = system: CCRF-CEM
[2] = system: HL-60
[3] = system: IGROV-1
[4] = system: K562
[5] = system: KM12
[6] = system: NCI-H23
[7] = system: RXF 393
[8] = system: SF-295
[9] = system: SK-MEL-28
[10] = system: SK-MEL-2
[11] = system: SK-MEL-5
[12] = system: SK-OV-3
[13] = system: SN12C
[14] = system: SW-620
[15] = system: TK-10
[16] = system: U-251
[17] = system: UACC-62

Row | Compound | GI50 [1] | GI50 [2] | GI50 [3] | GI50 [4] | GI50 [5] | GI50 [6] | GI50 [7] | GI50 [8] | GI50 [9] | GI50 [10] | GI50 [11] | GI50 [12] | GI50 [13] | GI50 [14] | GI50 [15] | GI50 [16] | GI50 [17]
1 | CCCCN(C)CC(C(C)=O)C(c1ccccc1)c1c(O)c2ccccc2oc1=O (configuration not stated) | > 100 µM (inactive) | > 100 µM (inactive) | > 100 µM (inactive) | > 100 µM (inactive) | > 100 µM (inactive) | 62.2 µM (inactive) | > 100 µM (inactive) | > 100 µM (inactive) | > 100 µM (inactive) | > 100 µM (inactive) | > 100 µM (inactive) | > 100 µM (inactive) | > 100 µM (inactive) | > 100 µM (inactive) | > 100 µM (inactive) | > 100 µM (inactive) | > 100 µM (inactive)
2 | NCCCN(CCCN)CCCNCc1c2ccccc2c(CNCCCN(CCCN)CCCN)c2ccccc12 | > 100 µM (inactive) | 11.6 µM (inactive) | 11.1 µM (inactive) | 9.42 µM (inactive) | 4.37 µM (inactive) | 22.5 µM (inactive) | 21.4 µM (inactive) | 12.3 µM (inactive) | 7.16 µM (inactive) | 23.7 µM (inactive) | 4.6 µM (inactive) | – | 15.4 µM (inactive) | 13.3 µM (inactive) | 10.8 µM (inactive) | 16.7 µM (inactive) | 7.21 µM (inactive)
3 | COc1ccc(N/N=C(\CCN(C)C)c2ccccc2)cc1 | 1.41 µM (inactive) | 2.82 µM (inactive) | 4.18 µM (inactive) | 2.39 µM (inactive) | 4.73 µM (inactive) | 4.43 µM (inactive) | 15.7 µM (inactive) | 0.437 µM (active) | 2.69 µM (inactive) | 4.49 µM (inactive) | 6.37 µM (inactive) | 3.41 µM (inactive) | 3.9 µM (inactive) | 2.86 µM (inactive) | 2.23 µM (inactive) | 1.79 µM (inactive) | 1.9 µM (inactive)
4 | N#CC1=C(c2ccccc2)C(O)(c2ccccc2)NC1=O (configuration not stated) | 70.5 µM (inactive) | > 100 µM (inactive) | > 100 µM (inactive) | > 100 µM (inactive) | > 100 µM (inactive) | 42 µM (inactive) | > 100 µM (inactive) | 37.4 µM (inactive) | > 100 µM (inactive) | 99.1 µM (inactive) | 68.1 µM (inactive) | 32.7 µM (inactive) | 48.3 µM (inactive) | > 100 µM (inactive) | > 100 µM (inactive) | > 100 µM (inactive) | > 100 µM (inactive)
5 | Cc1nc2c(ccc3ncccc32)[nH]1 | > 100 µM (inactive) | > 100 µM (inactive) | > 100 µM (inactive) | > 100 µM (inactive) | > 100 µM (inactive) | > 100 µM (inactive) | > 100 µM (inactive) | > 100 µM (inactive) | > 100 µM (inactive) | > 100 µM (inactive) | > 100 µM (inactive) | > 100 µM (inactive) | > 100 µM (inactive) | > 100 µM (inactive) | > 100 µM (inactive) | > 100 µM (inactive) | > 100 µM (inactive)
6 | COc1cc(C2c3cc4c(cc3[C@@H](OCCN(C)C)C3COC(=O)[C@H]23)OCO4)cc(OC)c1O (some centres not stated) | 0.0419 µM (active) | 0.036 µM (active) | 1.52 µM (inactive) | 0.562 µM (active) | 0.723 µM (active) | 0.237 µM (active) | 0.396 µM (active) | 0.145 µM (active) | 0.993 µM (active) | 1.29 µM (inactive) | 0.183 µM (active) | 0.163 µM (active) | 0.151 µM (active) | 0.579 µM (active) | 1.58 µM (inactive) | 0.0849 µM (active) | 0.243 µM (active)
7 | O=C1c2ccccc2NC1(c1ccccc1)c1c(-c2ccccc2)[nH]c2ccccc12 (configuration not stated) | 6.3 µM (inactive) | 5.04 µM (inactive) | 4.41 µM (inactive) | 8.32 µM (inactive) | 10.5 µM (inactive) | 21.4 µM (inactive) | 6.22 µM (inactive) | 6.34 µM (inactive) | 37.5 µM (inactive) | 11.9 µM (inactive) | – | 37.5 µM (inactive) | 14 µM (inactive) | 51.9 µM (inactive) | – | 14.4 µM (inactive) | 45.3 µM (inactive)
8 | CCCCCCCCCc1cc(=O)c2ccc(O)cc2o1 | 16.9 µM (inactive) | 11.6 µM (inactive) | 41.2 µM (inactive) | 14.5 µM (inactive) | 46.9 µM (inactive) | 63.5 µM (inactive) | 31.4 µM (inactive) | 47 µM (inactive) | > 100 µM (inactive) | 10.3 µM (inactive) | 43.5 µM (inactive) | 60.3 µM (inactive) | > 100 µM (inactive) | 67.6 µM (inactive) | 30 µM (inactive) | 33.8 µM (inactive) | > 100 µM (inactive)
9 | CCCCCCc1cc(C(=O)Nc2cccc(C(F)(F)F)c2)nc(N)n1 | > 100 µM (inactive) | > 100 µM (inactive) | > 100 µM (inactive) | > 100 µM (inactive) | > 100 µM (inactive) | > 100 µM (inactive) | > 100 µM (inactive) | > 100 µM (inactive) | > 100 µM (inactive) | > 100 µM (inactive) | > 100 µM (inactive) | > 100 µM (inactive) | > 100 µM (inactive) | > 100 µM (inactive) | > 100 µM (inactive) | > 100 µM (inactive) | > 100 µM (inactive)
10 | c1ccc2c(c1)C1CCCCCC21N1CCOCC1 (configuration not stated) | 97.7 µM (inactive) | 44.6 µM (inactive) | > 100 µM (inactive) | 45.1 µM (inactive) | > 100 µM (inactive) | > 100 µM (inactive) | > 100 µM (inactive) | > 100 µM (inactive) | > 100 µM (inactive) | > 100 µM (inactive) | 44.2 µM (inactive) | > 100 µM (inactive) | > 100 µM (inactive) | > 100 µM (inactive) | > 100 µM (inactive) | 78.5 µM (inactive) | > 100 µM (inactive)
11 | CCOC(=O)C(=O)Nc1ccc(Cl)c(C(F)(F)F)c1 | > 100 µM (inactive) | > 100 µM (inactive) | > 100 µM (inactive) | > 100 µM (inactive) | – | > 100 µM (inactive) | > 100 µM (inactive) | > 100 µM (inactive) | > 100 µM (inactive) | > 100 µM (inactive) | > 100 µM (inactive) | > 100 µM (inactive) | > 100 µM (inactive) | > 100 µM (inactive) | > 100 µM (inactive) | > 100 µM (inactive) | > 100 µM (inactive)
12 | CC(C)=CC(C(O)c1ccccc1)S(=O)(=O)c1nccn1C (configuration not stated) | > 100 µM (inactive) | > 100 µM (inactive) | > 100 µM (inactive) | > 100 µM (inactive) | > 100 µM (inactive) | > 100 µM (inactive) | > 100 µM (inactive) | > 100 µM (inactive) | > 100 µM (inactive) | > 100 µM (inactive) | > 100 µM (inactive) | > 100 µM (inactive) | > 100 µM (inactive) | > 100 µM (inactive) | > 100 µM (inactive) | > 100 µM (inactive) | > 100 µM (inactive)
13 | COC12CCC(=O)C=C1c1ccccc1N2C(C)=O (configuration not stated) | > 100 µM (inactive) | > 100 µM (inactive) | > 100 µM (inactive) | > 100 µM (inactive) | > 100 µM (inactive) | > 100 µM (inactive) | > 100 µM (inactive) | > 100 µM (inactive) | > 100 µM (inactive) | > 100 µM (inactive) | – | > 100 µM (inactive) | > 100 µM (inactive) | > 100 µM (inactive) | – | > 100 µM (inactive) | > 100 µM (inactive)
14 | COC(=O)C1=C(c2ccc3c(c2)OCO3)OC(c2ccc3c(c2)OCO3)C1 (configuration not stated) | > 100 µM (inactive) | > 100 µM (inactive) | > 100 µM (inactive) | > 100 µM (inactive) | 65.2 µM (inactive) | > 100 µM (inactive) | 68.5 µM (inactive) | 71.9 µM (inactive) | > 100 µM (inactive) | > 100 µM (inactive) | 68.5 µM (inactive) | > 100 µM (inactive) | > 100 µM (inactive) | 67 µM (inactive) | > 100 µM (inactive) | 93.8 µM (inactive) | > 100 µM (inactive)
15 | CC1CC2(CC[C@@H]1O)OCCO2 (some centres not stated) | > 100 µM (inactive) | > 100 µM (inactive) | > 100 µM (inactive) | > 100 µM (inactive) | > 100 µM (inactive) | > 100 µM (inactive) | > 100 µM (inactive) | > 100 µM (inactive) | – | > 100 µM (inactive) | > 100 µM (inactive) | > 100 µM (inactive) | > 100 µM (inactive) | > 100 µM (inactive) | > 100 µM (inactive) | > 100 µM (inactive) | > 100 µM (inactive)
16 | O=C1C(O)=C(CN(CCCl)CCCl)C(=O)c2ccccc21 | 42.3 µM (inactive) | 31 µM (inactive) | 20.5 µM (inactive) | 45.6 µM (inactive) | 56.5 µM (inactive) | 68.9 µM (inactive) | 28 µM (inactive) | 70.3 µM (inactive) | > 100 µM (inactive) | > 100 µM (inactive) | 52.6 µM (inactive) | > 100 µM (inactive) | 57.1 µM (inactive) | 53.2 µM (inactive) | > 100 µM (inactive) | 64.3 µM (inactive) | 39.6 µM (inactive)
17 | CC(C)N1C(C)[C@@H](c2ccccc2)O[P@@]1(=O)CC1=CCCCC1 (some centres not stated) | 48.5 µM (inactive) | 24.1 µM (inactive) | > 100 µM (inactive) | 48.6 µM (inactive) | > 100 µM (inactive) | > 100 µM (inactive) | 68.7 µM (inactive) | 57 µM (inactive) | > 100 µM (inactive) | > 100 µM (inactive) | 55.6 µM (inactive) | > 100 µM (inactive) | > 100 µM (inactive) | > 100 µM (inactive) | > 100 µM (inactive) | > 100 µM (inactive) | 47.1 µM (inactive)
